{"source": "the supplement of paper PMC10307832", "test_in_all_cases": "relative viability (nuclei count vs DMSO), 5 days (fraction); higher = more cells survive", "key": {"[1]": {"compound": "COC1=CC=C(C=C1)COC2=C(C=C(C=C2)CC3=CN=C(N=C3N)N)OC [GW-2580] + Cc1nc(Nc2ncc(C(=O)Nc3c(C)cccc3Cl)s2)cc(N2CCN(CCO)CC2)n1 [Dasatinib] (partner 0.075 µM)", "procedure,_shortened": "(§1)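 Lung cancer cell lines were seeded in 1536-well plates and dosed by pin tool the next day, with either a single drug or a fixed anchor-drug dose combined with five library-drug doses (not always all listed) spaced in √10 steps. Five days later, one step fixed the cells and stained their nuclei (final 0.05% Triton X-100, 1% formaldehyde, 1 ug/ml Hoechst), and nuclei were counted on 4× images. Relative viability is the nuclei count in treated wells divided by the count in vehicle wells, and each value is the median of duplicate plates.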"}, "[2]": {"compound": "Cc1cnc(Nc2ccc(OCCN3CCCC3)cc2)nc1Nc1cccc(S(=O)(=O)NC(C)(C)C)c1 [Fedratinib] + CC(C)C[C@H](NC(=O)[C@H](Cc1ccccc1)NC(=O)c1cnccn1)B(O)O [Bortezomib] (partner 0.002 µM)", "procedure,_shortened": "as §1"}, "[3]": {"compound": "COC1=CC=C(C=C1)COC2=C(C=C(C=C2)CC3=CN=C(N=C3N)N)OC [GW-2580] + COc1cc2c(Oc3ccc(NC(=O)C4(C(=O)Nc5ccc(F)cc5)CC4)cc3F)ccnc2cc1OCCCN1CCOCC1 [Foretinib] (partner 0.25 µM)", "procedure,_shortened": "as §1"}, "[4]": {"compound": "COC1=CC=C(C=C1)COC2=C(C=C(C=C2)CC3=CN=C(N=C3N)N)OC [GW-2580] + Nc1nc2[nH]cc(CCc3ccc(C(=O)N[C@@H](CCC(=O)O)C(=O)O)cc3)c2c(=O)[nH]1 [Pemetrexed] (partner 0.2 µM)", "procedure,_shortened": "as §1"}, "[5]": {"compound": "Cc1cnc(Nc2ccc(OCCN3CCCC3)cc2)nc1Nc1cccc(S(=O)(=O)NC(C)(C)C)c1 [Fedratinib] + C[C@@H](Oc1cc(-c2cnn(C3CCNCC3)c2)cnc1N)c1c(Cl)ccc(F)c1Cl [Crizotinib] (partner 1 µM)", "procedure,_shortened": "as §1"}}, "data": [{"cell line": "UMC-11", "values": [{"measurement": "relative viability", "setting": "[1]; first compound 0.08 µM", "value": 0.572}, {"measurement": "relative viability", "setting": "[1]; first compound 0.8 µM", "value": 0.508}, {"measurement": "relative viability", "setting": "[1]; first compound 2.53 µM", "value": 0.441}, {"measurement": "relative viability", "setting": "[1]; first compound 8 µM", "value": 0.62}, {"measurement": "relative viability", "setting": "[2]; first compound 0.1 µM", "value": 0.603}, {"measurement": "relative viability", "setting": "[2]; first compound 0.3162 µM", "value": 0.758}, {"measurement": "relative viability", "setting": "[2]; first compound 1 µM", "value": 0.396}, {"measurement": "relative viability", "setting": "[3]; first compound 0.08 µM", "value": 1.06}, {"measurement": "relative viability", "setting": "[3]; first compound 0.8 µM", "value": 1.04}, {"measurement": "relative viability", "setting": "[3]; first compound 2.53 µM", "value": 1.1}, {"measurement": "relative viability", "setting": "[3]; first compound 8 µM", "value": 1.23}, {"measurement": "relative viability", "setting": "[4]; first compound 0.08 µM", "value": 0.948}, {"measurement": "relative viability", "setting": "[4]; first compound 0.8 µM", "value": 0.939}, {"measurement": "relative viability", "setting": "[4]; first compound 2.53 µM", "value": 0.754}, {"measurement": "relative viability", "setting": "[4]; first compound 8 µM", "value": 0.718}, {"measurement": "relative viability", "setting": "[5]; first compound 0.1 µM", "value": 0.573}, {"measurement": "relative viability", "setting": "[5]; first compound 0.3162 µM", "value": 0.581}, {"measurement": "relative viability", "setting": "[5]; first compound 1 µM", "value": 0.379}]}]}
